In this test the test system is cancer in type 2 diabetic patients. The experiment in a line: Hazard ratios of drug use for cancer, 5-year prospective cohort (Hong Kong Diabetes Registry). The format is in vivo, Chinese type 2 diabetic patients. The note with it: patients who did not use the drug 2.5 yr prior to enrolment.
The mark [1] stands for this setting: Model 1, adjusted for propensity scores.
Setting [2] is: Model 2, adjusted for risk factors, use of other medications during follow-up and propensity score.

As to `CN(C)C(=N)N=C(N)N` [Metformin], the “HR(95% CI) for cancer, users versus non user” value reads like this: under setting [1], 0.38(0.25-0.56); under setting [2], 0.39(0.25-0.61).

As for `O=C1CSC(=O)N1` [TZDs, Thiazolidinedione], the “HR(95% CI) for cancer, users versus non user” value under setting [1] is reported as 0.12(0.03-0.50) and the “HR(95% CI) for cancer, users versus non user” value under setting [2] is recorded as 0.18(0.04-0.72).

As for Insulin, the “HR(95% CI) for cancer, users versus non user” value is 0.48(0.31-0.73) under setting [1] and 0.58(0.38-0.89) under setting [2].

Values taken from patent US10689702B2, “Biomarkers for diabetes” (The Chinese University of Hong Kong, priority 2012, dated 2020).
